Source: patent US9271967B2, “1,2,4-triazolo[4,3-a]pyridine derivatives and their use as positive allosteric modulators of mGluR2 receptors” (Janssen Pharmaceuticals, Inc., priority 2010, dated 2016)

Columns and labels:
human mGluR2 receptor = target: T1, human mGluR2 receptor (Homo sapiens, UniProt Q14416); assay: [35S]GTPγS binding assay (PAM assay); format: biochemical; settings: in presence of glutamate at EC20; for GTPγS-hmGluR2 PAM Emax / Emax: maximal % effect relative to the control glutamate response; for EC50: membranes of CHO cells transfected with human mGluR2, -log EC50 in M, read-out: GTPγS-hmGluR2 PAM pEC50 (converted); for Emax: read-out: GTPγS-hmGluR2 PAM Emax
T1 construct: expressed in transfected cells; host or cells: CHO cells
T1 sequence (Q14416 19-872): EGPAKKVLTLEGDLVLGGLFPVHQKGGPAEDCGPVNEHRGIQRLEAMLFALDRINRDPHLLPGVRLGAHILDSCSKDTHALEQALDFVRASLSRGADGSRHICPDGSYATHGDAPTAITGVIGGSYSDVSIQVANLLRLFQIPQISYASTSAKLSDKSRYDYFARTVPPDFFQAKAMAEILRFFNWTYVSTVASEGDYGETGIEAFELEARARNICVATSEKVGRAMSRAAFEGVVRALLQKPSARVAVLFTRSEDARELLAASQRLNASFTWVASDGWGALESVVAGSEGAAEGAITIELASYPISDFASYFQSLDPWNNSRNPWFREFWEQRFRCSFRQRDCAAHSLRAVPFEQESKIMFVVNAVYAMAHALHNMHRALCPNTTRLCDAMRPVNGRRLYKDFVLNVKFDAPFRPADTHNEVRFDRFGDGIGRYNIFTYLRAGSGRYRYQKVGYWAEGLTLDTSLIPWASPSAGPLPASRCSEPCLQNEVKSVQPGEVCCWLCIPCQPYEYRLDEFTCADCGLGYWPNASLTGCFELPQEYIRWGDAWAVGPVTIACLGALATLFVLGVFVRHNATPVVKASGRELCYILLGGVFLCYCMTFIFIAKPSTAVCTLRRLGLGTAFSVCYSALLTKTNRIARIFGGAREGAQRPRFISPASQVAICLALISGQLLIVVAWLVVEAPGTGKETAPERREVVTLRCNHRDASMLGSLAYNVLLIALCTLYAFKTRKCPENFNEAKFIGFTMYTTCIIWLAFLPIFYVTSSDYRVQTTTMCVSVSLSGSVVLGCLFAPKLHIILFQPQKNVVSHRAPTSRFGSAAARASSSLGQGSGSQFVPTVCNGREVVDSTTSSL
Protocol: The [^35S]GTPγS binding assay is a functional membrane-based assay used to study G-protein coupled receptor (GPCR) function whereby incorporation of a non-hydrolysable form of GTP, [^35S]GTPγS (guanosine 5′-triphosphate, labelled with […] ^35S), is measured. The G-protein α subunit catalyzes the exchange of guanosine 5′-diphosphate (GDP) by guanosine triphosphate (GTP) and on activation of the GPCR by an agonist, [^35S]GTPγS, becomes incorporated and cannot be cleaved to continue the exchange cycle (Harper (1998) Current Protocols in Pharmacology 2.6.1-10, John Wiley & Sons, Inc.). […] Here we describe the use of the [^35S]GTPγS binding assay using membranes from cells transfected with the human mGluR2 receptor and adapted from Schaffhauser et al. ((2003) Molecular Pharmacology 4:798-810) for the detection of the positive allosteric modulation (PAM) properties of the compounds of this invention.
CHO-cells were cultured to pre-confluence and stimulated with 5 mM butyrate for 24 h. Cells were then collected by scraping in PBS and cell suspension was centrifuged (10 min at 4000 RPM in benchtop centrifuge). Supernatant was discarded and pellet gently resuspended in 50 mM Tris-HCl, pH 7.4 by mixing with a vortex and pipetting up and down. The suspension was centrifuged at 16,000 RPM (Sorvall RC-5C plus rotor SS-34) for 10 minutes and the supernatant discarded. The pellet was homogenized in 5 mM Tris-HCl, pH 7.4 using an ultra-turrax homogenizer and centrifuged again (18,000 RPM, 20 min, 4° C.). The final pellet was resuspended in 50 mM Tris-HCl, pH 7.4 and stored at −80° C. in appropriate aliquots before use. Protein concentration was determined by the Bradford method (Bio-Rad, USA) with bovine serum albumin as standard.
Measurement of mGluR2 positive allosteric modulatory activity of test compounds was performed as follows. Test compounds and glutamate were diluted in assay buffer containing 10 mM HEPES acid, 10 mM HEPES salt, pH 7.4, 100 mM NaCl, 3 mM MgCl2 and 10 μM GDP. Human mGlu2 receptor-containing membranes were thawed on ice and diluted in assay buffer supplemented with 14 μg/ml saponin. Membranes were pre-incubated with compound alone or together with a predefined (˜EC20) concentration of glutamate (PAM assay) for 30 min at 30° C. After addition of [^35S]GTPγS (f.c. 0.1 nM), assay mixtures were shaken briefly and further incubated to allow [^35S]GTPγS incorporation on activation (30 minutes, 30° C.). Final assay mixtures contained 7 μg of membrane protein in 10 mM HEPES acid, 10 mM HEPES salt, pH 7.4, 100 mM NaCl, 3 mM MgCl2, 10 μM GDP and 10 μg/ml saponin. Total reaction volume was 200 μl. Reactions were terminated by rapid filtration through Unifilter-96 GF/B plates (Perkin Elmer, Mass., USA) using a 96-well filtermate universal harvester. Filters were washed 6 times with ice-cold 10 mM NaH2PO4/10 mM Na2HPO4, pH 7.4. Filters were then air-dried, and 40 μl of liquid scintillation cocktail (Microscint-O) was added to each well. Membrane-bound radioactivity was counted in a Microplate Scintillation and Luminescence Counter from Perkin Elmer.
The concentration-response curves of representative compounds of the present invention—obtained in the presence of EC20 of mGluR2 agonist glutamate to determine positive allosteric modulation (PAM)—were generated using the Lexis software interface (developed at J&J). Data were calculated as % of the control glutamate response, defined as the maximal response that is generated upon addition of glutamate alone. Sigmoid concentration-response curves plotting these percentages versus the log concentration of the test compound were analyzed using non-linear regression analysis. The concentration producing half-maximal effect is then calculated as EC50. The pEC50 values below were calculated as the −log EC50, when the EC50 is expressed in M. Emax is defined as relative maximal effect (i.e. maximal % effect relative to the control glutamate response).

Compound	GTPγS-hmGluR2 PAM Emax (human mGluR2 receptor; listed as 28a)	EC50 (human mGluR2 receptor)	GTPγS-hmGluR2 PAM Emax (human mGluR2 receptor; listed as 28b)	Emax (human mGluR2 receptor)	melting point
FC(F)(F)c1c(CNC2CCOc3ccccc32)ccn2c(CC3CC3)nnc12 (single isomer, unassigned) [Co. no. 28a, (4*R)—N-{[3-(Cyclopropylmethyl)-8-(trifluoromethyl) [1,2,4]triazolo[4,3-a]pyridin-7-yl]methyl}-3,4-dihydro-2H-chromen-4-amine]	257%	794 nM			
FC(F)(F)c1c(CNC2CCOc3ccccc32)ccn2c(CC3CC3)nnc12 (single isomer, unassigned) [Co. no. 28b, (4*S)—N-{[3-(Cyclopropylmethyl)-8-(trifluoromethyl) [1,2,4]triazolo[4,3-a]pyridin-7-yl]methyl}-3,4-dihydro-2H-chromen-4-amine]		575 nM	285%		
Fc1ccc(N2CCC(NCc3ccn4c(CC5CC5)nnc4c3C(F)(F)F)CC2)c(F)c1 [Co. no. 2, 3-(Cyclopropylmethyl)-N-[1-(2,4-difluorophenyl)-4-piperidinyl]-8-(trifluoromethyl)-1,2,4-triazolo[4,3-a]pyridine-7-methanamine]		617 nM		321%	
FC(F)(F)c1c(CN[C@H]2CC[C@H](c3ccccc3)CC2)ccn2c(CC3CC3)nnc12 [Co. no. 3, 3-(Cyclopropylmethyl)-N-(trans-4-phenylcyclohexyl)-8-(trifluoromethyl)-1,2,4-triazolo[4,3-a]pyridine-7-methanamine]		234 nM		235%	157.4 °C
CCc1nnc2c(C(F)(F)F)c(CN[C@H]3CC[C@H](c4ccccc4)CC3)ccn12 [Co. no. 4, 3-Ethyl-N-(trans-4-phenylcyclohexyl)-8-(trifluoromethyl)-1,2,4-triazolo[4,3-a]-pyridine-7-methanamine]		1200 nM		197%	
FC(F)(F)c1c(CNC2Cc3ccccc3C2)ccn2c(CC3CC3)nnc12 [Co. no. 6, 3-(Cyclopropylmethyl)-N-(2,3-dihydro-1H-inden-2-yl)-8-(trifluoromethyl)-1,2,4-triazolo[4,3-a]pyridine-7-methanamine]		794 nM		227%	
FC(F)(F)c1c(CN[C@H]2CC[C@@H](c3ccccc3)CC2)ccn2c(CC3CC3)nnc12 [Co. no. 7, 3-(Cyclopropylmethyl)-N-(cis-4-phenylcyclohexyl)-8-(trifluoromethyl)-1,2,4-triazolo-[4,3-a]pyridine-7-methanamine]		42.7 nM		263%	
CCc1nnc2c(C(F)(F)F)c(CN[C@H]3CC[C@@H](c4ccccc4)CC3)ccn12 [Co. no. 8, 3-Ethyl-N-(cis-4-phenylcyclohexyl)-8-(trifluoromethyl)-1,2,4-triazolo[4,3-a]pyridine-7-methanamine]		324 nM		228%	
CCc1nnc2c(C(F)(F)F)c(CN[C@H]3CC[C@@H](c4ccc(F)cc4F)CC3)ccn12 [Co. no. 9, N-[Cis-4-(2,4-difluorophenyl)cyclohexyl]-3-ethyl-8-(trifluoromethyl)-1,2,4-triazolo[4,3-a]pyridine-7-methanamine]		209 nM		209%	
CCOCc1nnc2c(C(F)(F)F)c(CN[C@H]3CC[C@@H](c4ccccc4)CC3)ccn12 [Co. no. 10, 3-(Ethoxymethyl)-N-(cis-4-phenylcyclohexyl)-8-(trifluoromethyl)-1,2,4-triazolo-[4,3-a]pyridine-7-methanamine]		170 nM		242%	
CCOCc1nnc2c(C(F)(F)F)c(CN[C@H]3CC[C@H](c4ccccc4)CC3)ccn12 [Co. no. 11, 3-(Ethoxymethyl)-N-(trans-4-phenylcyclohexyl)-8-(trifluoromethyl)-1,2,4-triazolo-[4,3-a]pyridine-7-methanamine]				278%	
Clc1c(CN[C@H]2CC[C@@H](c3ccccc3)CC2)ccn2c(CC3CC3)nnc12 [Co. no. 12, 8-Chloro-3-(cyclopropylmethyl)-N-(cis-4-phenylcyclohexyl)-1,2,4-triazolo-[4,3-a]pyridine-7-methanamine]		589 nM		257%	
Clc1c(CN[C@H]2CC[C@H](c3ccccc3)CC2)ccn2c(CC3CC3)nnc12 [Co. no. 13, 8-Chloro-3-(cyclopropylmethyl)-N-(trans-4-phenylcyclohexyl)-1,2,4-triazolo-[4,3-a]pyridine-7-methanamine]				243%	
FC(F)(F)c1c(CNC2CC2c2ccccc2)ccn2c(CC3CC3)nnc12 (stereo not drawn) [Co. no. 27, Trans-N-{[3-(Cyclopropylmethyl)-8-(trifluoromethyl)[1,2,4]triazolo[4,3-a]pyridin-7-yl]methyl}-2-phenylcyclopropanamine]		871 nM		267%	
FC(F)(F)c1c(CN[C@H]2CCO[C@H](c3ccccc3)C2)ccn2c(CC3CC3)nnc12 [Co. no. 29, (2S,4S)—N-{[3-(Cyclopropylmethyl)-8-(trifluoromethyl) [1,2,4]triazolo[4,3-a]pyridin-7-yl]methyl}-2-phenyltetrahydro-2H-pyran-4-amine]				209%	95.8 °C
FC(F)(F)c1c(CN[C@@H]2CCO[C@@H](c3ccccc3)C2)ccn2c(CC3CC3)nnc12 [Co. no. 30, (2R,4R)—N-{[3-(Cyclopropylmethyl)-8-(trifluoromethyl)[1,2,4]triazolo[4,3-a]pyridin-7-yl]methyl}-2-phenyltetrahydro-2H-pyran-4-amine]		1200 nM		239%	139.6 °C
FC(F)(F)c1c(CNC2COCC2c2ccccc2)ccn2c(CC3CC3)nnc12 (stereo not drawn) [Co. no. 31, Cis-N-{[3-(Cyclopropylmethyl)-8-(trifluoromethyl) [1,2,4]triazolo[4,3-a]pyridin-7-yl]methyl}-4-phenyltetrahydrofuran-3-amine]				201%	
